# Results taken from patent US8343475B2, “Small cationic antimicrobial peptides” (priority 2006, dated 2013).
# Experiments:
# Assay in all cases: Chemokine induction in PBMC (capture ELISA)
# Format in all cases: cell-based
# [1] = test system: MCP-1 release by human PBMC; conditions: background (204) subtracted
# Method: FIG. 15. Induction of MCP-1 release by 7.5×10^5 human PBMC in response to treatment with 20 or 100 μg/ml of different peptides for 24 hours.
# (§1) Venous blood (20 ml) from healthy volunteers was collected in Vacutainer® collection tubes containing sodium heparin as an anticoagulant (Becton Dickinson, Mississauga, ON) in accordance with UBC ethical approval and guidelines. Blood was diluted 1:1 with complete RPMI 1640 medium and separated by centrifugation over a Ficoll-Paque® Plus (Amersham Biosciences, Piscataway, N.J., USA) density gradient. White blood cells were isolated from the buffy coat, washed twice in RPMI 1640 complete medium, and the number of peripheral blood mononuclear cells (PBMC) was determined by trypan blue exclusion. PBMC (5×10^5) were seeded into 12-well tissue culture dishes (Falcon; Becton Dickinson) at 0.75 to 1×10^6 cells/ml at 37° C. in 5% CO2. The above conditions were chosen to mimic conditions for circulating blood monocytes entering tissues at the site of infection via extravasation.
# (§2) Following incubation of the cells under various treatment regimens, the tissue culture supernatants were centrifuged at 1000×g for 5 min, then at 10,000×g for 2 min to obtain cell-free samples. Supernatants were aliquoted and then stored at −20° C. prior to assay for various chemokines by capture ELISA (eBioscience and BioSource International Inc., CA, USA respectively)
# [2] = test system: MCP-3 release by human PBMC; conditions: background (6) subtracted
# Method: FIG. 16. Induction of MCP3 release by 7.5×10^5 human PBMC in response to treatment with 20 or 100 μg/ml of different peptides for 24 hours.
# as §1, §2
# [3] = test system: CXCL1 (Gro-α) release by human PBMC; conditions: background (196) subtracted
# Method: FIG. 17. Induction of CXCL1 (Gro-α) release by 7.5×10^5 human PBMC in response to treatment with 20 or 100 μg/ml of different peptides for 24 hours.
# as §1, §2
Substance,Chemokine induction MCP-1 ([1]; 20 μg/ml peptide) [pg/mL],Chemokine induction MCP-1 ([1]; 100 μg/ml peptide) [pg/mL],Chemokine induction MCP-3 ([2]; 20 μg/ml peptide) [pg/mL],Chemokine induction MCP-3 ([2]; 100 μg/ml peptide) [pg/mL],Chemokine induction Gro-α ([3]; 20 μg/ml peptide) [pg/mL],Chemokine induction Gro-α ([3]; 100 μg/ml peptide) [pg/mL]
1003 (IVWKIKRWWVGR) [compound 1003],31,1361,0,5,65,170
1004 (RFWKVRVKYIRF) [compound 1004],300,1680,1,30,55,336
1007 (WNRVKWIRR) [compound 1007],103,247,7,28,65,170
1008 (RIKWIVRFR) [compound 1008],633,1775,1,22,109,869
1009 (AIRVVRARLVRR) [compound 1009],634,1093,6,6,230,377
1011 (RRWVVWRIVQRR) [compound 1011],579,2282,1,35,46,308
1014 (RQVIVRRW) [compound 1014],83,175,0,1,6,15
1015 (VLIRWNGKK) [compound 1015],113,644,0,10,42,178
1016 (LRIRWIFKR) [compound 1016],269,819,1,27,26,247
1017 (KRIVRRLVARIV) [compound 1017],585,1019,0,0,56,250
1019 (IVVWRRQLVKNK) [compound 1019],27,438,0,0,5,43
1021 (VRLRIRVAV) [compound 1021],158,276,3,10,29,112
1022 (LRIRVIVWR) [compound 1022],52,983,0,1,10,64
1023 (IRVWVLRQR) [compound 1023],250,712,0,1,36,38
1024 (RIRVIVLKK) [compound 1024],285,81,1,0,20,-21
1025 (RRIVKKFQIVRR) [compound 1025],109,284,1,3,-3,32
1027 (KKQVSRVKVWRK) [compound 1027],54,1466,0,14,8,204
1029 (KQFRIRVRV) [compound 1029],296,205,3,3,49,60
1034 (KQFRNRLRIVKK) [compound 1034],434,796,0,4,60,61
1036 (VQFRIRVIVIRK) [compound 1036],601,968,1,39,51,137
1038 (IVVRRVIRK) [compound 1038],25,1552,0,41,12,518
1039 (IWVIRRVWR) [compound 1039],603,2420,13,67,469,1717
1040 (FQVVKIKVR) [compound 1040],74,1143,0,9,2,264
1042 (IVWIWRR) [compound 1042],-7,12,3,3,44,9
1044 (RRWIVWI) [compound 1044],1561,5024,115,261,1963,1545
